# Key:
# mdx mice = assay: serum creatinine kinase (CK) levels in mdx mice given calcium supplements orally; assay type: in vivo; details: 12 weeks
# Source text: Experimental mice were administrated orally (by feeding or drinking) with control or test items. The control or test items were repeatedly administered daily until the study termination (after 12 weeks).
# Animals were administrated with ACC by food or by drinking. Animals were administrated with CCC by food. Control was administrated by feeding. The control or test items were repeatedly administered daily until study termination.
# At study termination blood sample was drawn from all animals under light anesthesia with Ketmaine/Xylazine, directly from the retro orbital sinus.
# 200 μl blood were collected into a yellow-cup tube with clotting activator gel. The tubes were kept at room temperature for at least 30 minutes for clotting and centrifuged at room temperature for 10 minutes at 4000 RPM. The serum samples are stored at 2-4° C. until delivered to CK analysis at A.M.L labs.
# [1] = test system: healthy skeletal muscle cultures; assay: myotube formation and contraction in healthy skeletal muscle cultures; assay type: cell-based, rat; details: added at 1 mM (final Ca2+ 2 mM)
# Method: Stationary skeletal muscle cultures were prepared from healthy 1 day new born rat (Sprague Dawley, Harlan, Israel). The muscle tissue was dissected from posterior legs and was thoroughly minced. Digestion was performed with Trypsin-EDTA while gentle trituration. After 30 min the supernatant, containing dissociated cells, was collected and a fresh Trypsin-EDTA was added. This procedure was repeated two more times. Then, all supernatants were pooled, centrifuged, and the cell pellet was re-suspended in Proliferation Medium. Cells were seeded in a Gelatin coated 12 wells culture plates, 1×10^5 cells/well containing 1 mL of Proliferation Medium. Two days later, the medium was changed to Fusion Medium, which was then changed twice a week. The cultures were monitored by daily phase contrast microscopic observations from 24 hours after setting the cultures and onward.
# Stock solution of 1% porcine gelatin in water, was sterilized by autoclave. Once cooled, 500 μl of the solution were added to each well of the 12-wells culture plat. After incubation for 20 min at room temperature, the excess solution was removed, and the cells were seeded.
# For the proliferation stage, cells were cultured in: DMEM/F12 (containing 1 mM Ca^2+) +10% FBS, 25 μg/mL Gentamycin, and 2 mM L-Glutamine.
# For the fusion stage the Proliferation Medium was changed with Fusion Medium, which was prepared as following: DMEM/F12 (containing 1 mM Ca2+), 2% horse serum (HS), 2 mM L-Glutamine, 25 μg/mL Gentamycin, and 4 units/100 mL Insulin (all purchased from Biological-Industries, Israel).
# Control cultures were grown without further added calcium, or cultures enriched with free (soluble) stabilizer. The experiment was blinded by marking the various calcium preparations with arbitrary numerals only.
# The components were added in one of the following ways: (i) aqueous suspensions of dry material; (ii) aqueous suspension of fresh material (before drying), or (iii) dissolved with HCl (to mimic the acidity which exists in the stomach. After dissolving was accomplished, the formed solutions were neutralized with 1M NaOH).
# [2] = test system: spinal cord-dorsal root ganglia (SC-DRG) slices; assay: nerve fiber sprouting from SC-DRG co-cultures; assay type: cell-based, rat; details: after 4 days of cultivation, portion of explants (out of 6)
# Method: Neural and Vascular Reconstruction Gel ([…] Labs proprietary) is composed of two main components: high molecular hyaluronic acid (HA, 3×10^6 Da, BTG, Israel) and laminin (Sigma). […] The gel has the texture of a viscous liquid, it adheres easily and successfully the embedded cells or explants to the plastic or glass substratum, and enabled nerve fiber outgrowth in a 3D pattern. All the experiments were carried out and authorized by the local ethics committee recognized by the Israeli authorities for animal experimentation. Stationary organotypic cultures of dorsal root ganglia (DRG) and spinal cord (SC) as well as cultures of dissociated brain cells were prepared from rat fetuses (15 days of gestation, Lewis inbred, Harlan, Israel). Immediately after dissection, the isolated tissues were cut with a […] tissue chopper into small slices (of 400 μm thickness). In these studies, two tissue culture strategies were used. […] In the second method, the tissue slices were further dissociated with a trypsin-EDTA solution for 30 min, and washed with a culture medium. Subsequently, the dissociated cells were added to a suspension of chitosan powder or gastrolith powder (micro carriers, MCs) and incubated in suspension at 37° C. for 4 days. […] Calcium source were as following: ACC-Etidronic Acid (ACC-ET) (fresh suspension); ACC-Phosphoserine (ACC-PS) (fresh suspension); Gastrolith (dissolved with 0.1 M HCl and then neutralized with NaOH 1M); gastrolith powder; […] The cultures were monitored by daily phase contrast microscopic observations starting from 24 hours after setting the cultures onward. Suspensions of fresh ACC preparations consisted of particles forming a stable suspension. The gastrolith is a natural ACC isolated from crabs, and can be purchased only as a dry powder. In this form, its other characteristic components (such as calcium ions and proteins) are not available to the cells. In order to increase their bioavailability, the gastrolith powder was dissolved in 0.1 M HCl (which mimics the acidity which exists in the stomach) and then neutralized with 1M NaOH. […] The specimens were then incubated with rabbit anti-neurofilament antibodies (NF, Novus Biologicals, 1:500) to visualize the neurite outgrowth. […] Finally, the samples were rinsed again with wash buffer, and mounted with mounting medium (Immco Diagnostic, USA).
# mice embryos = assay: in vitro embryo development in Quinn's Advantage cleavage media; assay type: cell-based
# Method: CBA male mice were bred with BL C57 female mice. The mice were kept on a 12 hours photoperiod schedule with unlimited water and food supply. About 6 to 8 weeks after receiving offspring, each female mouse was injected IP with 5IU of pregnant mare serum gonadotropin (PMSG).
# After 48 hours each female mouse was injected IP with 5IU human chorionic gonadotropin (hCG). Male mice proven to be fertile were then put together with the superovulated females. The next morning the female mice were examined for the presence of copulatory plugs. Females that had copulatory plugs were euthanized after 24 hours (approximately 36 hours post-coitus) and embryos at 2 cell stage were retrieved from the oviducts as following: the oviducts were dissected in Quinn's Advantage cleavage media (SAGE, Origio, Denmark) and the embryos were transferred to 20 μL drops with Quinn's Advantage cleavage media (SAGE, Origio, Denmark) overlaid with mineral oil and cultured at 37.0° C. under 5% CO2 and atmospheric oxygen. The collected embryos continued to grow, i.e. in-vitro culture (IVC), until blastocyst/hatching stage. To test the effect of amorphous calcium carbonate, the Quinn's Advantage cleavage media (“cleavage media” hereinafter) was supplemented with different additives, i.e. amorphous calcium carbonate stabilized by polyphosphate (ACC-PP), crystalline calcium carbonate (CCC), polyphosphate (PP), phosphoserine (PS) or sodium carbonate ([…]). All supplements were added as a freshly prepared suspension; the preparation of the ACC supplements were performed under aseptic conditions. Untreated cleavage media (without addition of any additive) was used as a control (identified as Cont Q). The embryos were evaluated every day by microscope observation for a detection of the following stages: 2 cells, compactions stage, blastocysts formation and hatching stage. The fraction (in percent) of the embryos reached each stage was calculated (the number of 2 cells embryos was set as 100%).
# sperm = details: addition to calcium-free mediums; Bhoumik et al. 2014; cited from earlier work
# [3] = Example 15, pooled embryos, 3.3 mM in cleavage media
# [4] = Example 17, mouse 1 sibling embryos, 1.7 mM in cleavage media
# [5] = Example 17, mice 3-6 pooled embryos, 1.7 mM in cleavage media
# [6] = Example 17, mouse 2 sibling embryos, 1.7 mM in cleavage media
# [7] = Example 16, pooled embryos, 1.7 mM in cleavage media
# [8] = Example 13, mice 3-7 pooled embryos, 1.6 mM in cleavage media
# [9] = Example 14, pooled embryos, 1.6 mM in cleavage media
molecule,measurement,setting,value
"O=C([O-])[O-].[Ca+2] [CCC, crystalline calcium carbonate]",elevation of CK compared to mdx group on normal diet only (2M),"mdx mice; by food, diet with 1% elemental calcium (4M: synthetic ACC 5% PS; 3M: synthetic CCC)",not statistically significant
same,creatinine kinase (CK) in serum,"mdx mice; group 3M: by food, diet with 1% elemental calcium","21,676±14,508 IU/ml"
same,muscle fibers after 7 days,[1],"fewer, thinner and shorter muscle fibers"
same,"early formation of many myotubes, time of cultivation",[1]; dry powder suspended in water,later
same,Cultures with axonal regeneration (%),[2]; calcium preparation at Ca2+ 2 mM,50%
same,8 cell/d2: number of embryos,mice embryos; [3],3
same,Blast/d3: number of embryos,mice embryos; [3],17
same,Blast/d3: portion of the initial number of embryos,mice embryos; [3],100%
same,Hatch/d4: number of embryos,mice embryos; [3],14
same,Hatch/d4: portion of the initial number of embryos,mice embryos; [3],82.35%
same,comp/d2: number of embryos,mice embryos; [3],14
same,8 cell/d2: number of embryos,mice embryos; [4],14
same,Blast/d3: number of embryos,mice embryos; [4],12
same,Blast/d4: number of embryos,mice embryos; [4],5
same,Hatch/d4: number of embryos,mice embryos; [4],15
same,Hatch/d4: portion of the initial number of embryos,mice embryos; [4],62.5%
same,comp/d2: number of embryos,mice embryos; [4],6
same,degenerative: number of embryos,mice embryos; [4],1
same,early Blast/d3: number of embryos,mice embryos; [4],8
[Ca+2] [Ca^2+ ions],increase of forward sperm motility,sperm,up to 20%
"CC(O)(P(=O)(O)O)P(=O)(O)O [ET, Etidronic Acid]",Cultures with axonal regeneration (%),[2]; stabilizer alone at 0.05%,33.3%
"O=C([O-])[O-].[Na+].[Na+] [NaCO3, sodium carbonate]",embryonic development compared to control or to the addition of ACC-PP,"mice embryos; Example 17, 1.7 mM in cleavage media",very poor embryonic development
same,8 cell/d2: number of embryos,mice embryos; [5],2
same,Blast/d3: number of embryos,mice embryos; [5],0
same,Blast/d4: number of embryos,mice embryos; [5],0
same,Hatch/d4: number of embryos,mice embryos; [5],0 (0)
same,Hatch/d4: portion of the initial number of embryos,mice embryos; [5],0 (0) %
same,comp/d2: number of embryos,mice embryos; [5],7
same,degenerative: number of embryos,mice embryos; [5],1
same,early Blast/d3: number of embryos,mice embryos; [5],0
same,8 cell/d2: number of embryos,mice embryos; [6],6
same,Blast/d3: number of embryos,mice embryos; [6],2
same,Blast/d4: number of embryos,mice embryos; [6],0
same,Hatch/d4: number of embryos,mice embryos; [6],2
same,Hatch/d4: portion of the initial number of embryos,mice embryos; [6],12.5%
same,comp/d2: number of embryos,mice embryos; [6],8
same,degenerative: number of embryos,mice embryos; [6],2
same,early Blast/d3: number of embryos,mice embryos; [6],14
"N[C@@H](COP(=O)(O)O)C(=O)O [PS, phosphoserine]",Cultures with axonal regeneration (%),[2]; stabilizer alone at 0.05%,0%
same,8 cell/d2: number of embryos,mice embryos; [7],5
same,Blast/d3: number of embryos,mice embryos; [7],12
same,Blast/d3: portion of the initial number of embryos,mice embryos; [7],92.3%
same,Hatch/d4: number of embryos,mice embryos; [7],10
same,Hatch/d4: portion of the initial number of embryos,mice embryos; [7],76.9%
same,comp/d2: number of embryos,mice embryos; [7],8
polyphosphate [PP],8 cell/d2: number of embryos,mice embryos; [8],9
same,Blast/d3: number of embryos,mice embryos; [8],20
same,Blast/d3: portion of the initial number of embryos,mice embryos; [8],54.1%
same,Hatch/d4: number of embryos,mice embryos; [8],17
same,Hatch/d4: portion of the initial number of embryos,mice embryos; [8],45.9%
same,comp/d2: number of embryos,mice embryos; [8],20
same,8 cell/d2: number of embryos,mice embryos; [9],6
same,Blast/d3: number of embryos,mice embryos; [9],34
same,Blast/d3: portion of the initial number of embryos,mice embryos; [9],94.44%
same,Hatch/d4: number of embryos,mice embryos; [9],16
same,Hatch/d4: portion of the initial number of embryos,mice embryos; [9],44.44%
same,comp/d2: number of embryos,mice embryos; [9],30

# — patent US12629390B2, “Stabilized amorphous calcium carbonate for treatment of neurological, muscular and infertility diseases or conditions” (AMORPHICAL LTD., priority 2016, dated 2026)
